Here are results for one compound from patent publication US11331368B2, “Angiotensin receptor agonists and uses thereof” (Monash University, priority 2017, dated 2022).

The target of one series is T1, human AT1R (Homo sapiens, UniProt P30556).
T1 construct: expressed in transfected cells
T1 sequence (P30556 1-359): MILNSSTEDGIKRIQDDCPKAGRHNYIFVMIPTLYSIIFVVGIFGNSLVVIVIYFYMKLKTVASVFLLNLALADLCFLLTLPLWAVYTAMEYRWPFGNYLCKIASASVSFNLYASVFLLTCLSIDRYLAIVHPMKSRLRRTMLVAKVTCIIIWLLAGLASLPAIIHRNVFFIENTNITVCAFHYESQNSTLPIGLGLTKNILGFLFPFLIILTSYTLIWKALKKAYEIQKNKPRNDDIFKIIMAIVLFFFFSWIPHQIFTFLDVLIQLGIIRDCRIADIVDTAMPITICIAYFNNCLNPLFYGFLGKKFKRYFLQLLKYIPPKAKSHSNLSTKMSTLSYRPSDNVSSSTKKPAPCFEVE
Put plainly: Competition radioligand binding (125I-Sar1-Ile8-AngII) in AT1R-transfected HEK-293 cells.

Another series addresses T2, human AT2R (Homo sapiens, UniProt P50052).
T2 construct: expressed in transfected cells
T2 sequence (P50052 1-363): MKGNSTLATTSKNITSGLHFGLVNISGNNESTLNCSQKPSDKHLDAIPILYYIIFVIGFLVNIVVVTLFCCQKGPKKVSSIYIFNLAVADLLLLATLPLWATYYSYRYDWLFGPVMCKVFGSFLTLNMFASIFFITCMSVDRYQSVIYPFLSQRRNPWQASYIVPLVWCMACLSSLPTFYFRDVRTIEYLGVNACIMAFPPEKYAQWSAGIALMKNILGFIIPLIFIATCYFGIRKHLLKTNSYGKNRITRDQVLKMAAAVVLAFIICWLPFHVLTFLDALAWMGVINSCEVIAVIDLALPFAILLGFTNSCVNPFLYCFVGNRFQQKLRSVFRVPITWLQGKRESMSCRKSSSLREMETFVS
Put plainly: Competition radioligand binding (125I-Sar1-Ile8-AngII) in AT2R-transfected HEK-293 cells. Conditions: transfected HEK-293 cells.

Series [1] in a line: In vitro plasma stability assay (rat plasma). Type of series: in vitro ADME. The conditions noted are these: plasma from male spontaneously hypertensive rats (SHR), read-out: Plasma stability (t1/2). How it is done:
Proteolytic stability may be tested in a plasma stability assay used to assess the susceptibility of a peptide described herein to plasma proteases. Plasma stability may be tested using methods described herein. For example, a sample of rat plasma may be incubated with peptide of interest (final concentration was 1 mg/mL; plasma diluted by 10% with peptide dissolved in saline). Protease activity is then quenched in samples by the addition of acetonitrile, at selected time intervals. The amount of parent compound remaining at each time point can then be assayed on an Agilent 1100 MSD SL ion trap mass spectrometer. The peaks observed in the resulting chromatograms are integrated, compared to a standard curve, and cross-checked by mass and retention time (Jones et al 2011 Hypertension. 57: 570-576).
B) Proteolytic stability was tested in a plasma stability assay used to assess the susceptibility of Ang II peptides to plasma proteases. A sample of rat plasma was incubated with peptide of interest (final concentration was 1 mg/mL; plasma diluted by 10% with peptide dissolved in saline). Protease activity was quenched in samples by the addition of acetonitrile, at selected time intervals. The amount of parent compound remaining at each time point was then assayed on an Agilent 1100 MSD SL ion trap mass spectrometer. […]

Series [2] relates to male FVB/N mice on high salt diet, heart. Description: High salt (5%) diet intervention model, heart. The class given is in vivo, mouse. The gist of the method: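 Male FVB/N mice fed 5% salt diet for 8 weeks (controls 0.35% NaCl); from week 4, AT2R agonist at 75 pmol/kg/min or saline given subcutaneously by osmotic minipump for 4 weeks on continued high salt. Heart collagen by picrosirius red, % interstitial staining averaged over eight fields; immunofluorescence for fibrosis/inflammation markers.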

In series [3] the test system is male FVB/N mice on high salt diet, kidney. Description: High salt (5%) diet intervention model, kidney. The class given is in vivo, mouse. The conditions noted are these: 75 pmol/kg/min s.c., weeks 5-8. How it is done: C) In the intervention (or reversal) model, male FVB/N mice were treated with selective AT2Rs agonists after the establishment of cardiovascular disease using a high salt diet, in order to reverse cardiovascular pathologies. In some experiments, the ACE inhibitor captopril (dose) or the ARB candesartan cilexetil (dose) were given for 4 weeks in drinking water. Organs examined included heart, kidney and liver and these were compared to either untreated mice or high salt-fed mice that were treated with saline.
Mice were placed on either a normal rodent diet (0.35% NaCl) which acted as control or a high salt diet (5% sodium in food chow) for 8 weeks. After 4 weeks, mice were also treated subcutaneously (via osmotic mini-pump) with either saline or an AT2R agonist (75 pmol/kg/min subcutaneously) for 4 weeks. Mice continued to be fed a high salt diet whilst receiving these treatments.
To measure collagen deposition, frozen sections of heart, kidney or aorta (all 5 μm thickness) were air dried for 10 minutes and were brought through 3 times xylene (2 minutes each), and 3 times absolute alcohol washes before being rinsed in tap H2O for 30 seconds. Staining with an optimal concentration of picrosirius red (in this instance 0.05% picrosirius red diluted in saturated picric acid) was performed and left for an hour. Sections were then rinsed in water and differentiated in 0.01M HCl for 2 minutes, followed by dehydration via 3 times absolute alcohol washes. Then, slides were brought through 3 times xylene washes before being cover slipped according to standard histological techniques using DPX as the mounting medium. Images were taken under ×20 magnification, using bright field (Olympus, BX51) and circularized polarized light microscopy (DM IRB, Leica) while percentage of positive interstitial collagen staining per total field of view was quantified using ImageJ 1.46 software (Java, NIH), and averaged out from a total of eight views as the final percentage collagen content in a particular animal.
Kidney sections used either picrosirius red staining as described above or using Mason's Trichrome staining as described below.
Formalin fixed, paraffin embedded kidneys were sectioned at thickness of 4 μm and were stained with Masson's trichrome according to standard procedures for analysis of kidney fibrosis. […] Sections were re-fixed in Bouin's solution for 1 hour at 56° C. to improve staining quality then rinsed in running tap water for 5-10 minutes to remove yellow colour. Following this, sections were stained in Weigert's iron hematoxylin working solution for 10 minutes. Rinsed in running warm tap water for 10 minutes. Washed in distilled water. Stained in Biebrich scarlet-acid fuchsin solution for 10-15 minutes. Washed in distilled water. Differentiated in phosphomolybdic-phosphotungstic acid solution for 10-15 minutes or until collagen was no longer red. Sections were transferred directly (without rinse) to aniline blue solution and stained for 5-10 minutes. Rinsed briefly in distilled water and differentiated in 1% acetic acid solution for 2-5 minutes. Washed in distilled water. […] Mounted with DPX mounting medium.
Quantification of kidney fibrosis was performed using images captured with the Aperio scanner (Monash Histology Platform, Monash University), with ×5 magnification. Each kidney section had 5 different fields of view photographed at this magnification. Percentage of tubulointerstitial collagen was analysed and quantified using ImageJ 1.48 software (Java, NIH), and the percentage from 5 random fields of view were averaged for final percentage of collagen for that particular animal. All analysis of collagen expression was conducted in a blinded fashion.

Series [4] shares this test system. Description: High salt (5%) diet intervention model, kidney. The class given is in vivo, mouse. Conditions: 75 pmol/kg/min s.c., weeks 5-8. The source holds these as a separate data set.

Protocol for human AT2R: This will lead to the generation of IC50 values that determine the relative ability of test compounds to interact with both Angiotensin receptors.
Cells were grown to approximately 80% confluence before being re-plated into 48 well plates at 1×10^5 cells/well and grown for 48 hours at 37° C. for a whole cell competition binding assay. [125I]-Sar1Ile8Ang II at 50,000 cpm, incubated for 45 minutes at 37° C., in the absence or presence of unlabeled ligands, prepared in binding buffer (DMEM, 0.1% BSA), were used in the competition assays at concentrations ranging from 1 μM to 10 μM. For each experiment, each ligand concentration was tested in duplicate or triplicate, and each experiment was repeated at least 3 separate times. […] The ability of each ligand to inhibit specific binding of [125I]-Sar1Ile8Ang II was measured on a gamma counter with all counts corrected for NSB.

`CC[C@H](C)[C@H](NC(=O)[C@H](Cc1ccc(O)cc1)NC(=O)[C@@H](NC(=O)[C@H](CCCNC(=N)N)NC(C)=O)C(C)C)C(=O)N[C@@H](Cc1c[nH]cn1)C(=O)N1CCC[C@H]1CC(=O)N[C@@H](Cc1c[nH]c2ccccc12)C(=O)O` [NAc-βPro-Trp-8-Ang III, NAc--Arg-Val-Tyr-Ile-His-β-Pro-Trp]: the “binding at AT1R (displacement of 125I-Sar1-Ile8-AngII), in words” value on human AT1R is recorded as “bind poorly”. On human AT2R, the “binding at AT2R (displacement of 125I-Sar1-Ile8-AngII), in words” value is “high affinity”. Further, in series [1], the half-life at 1 mg/mL was 25.8 h. Also, in series [2] (75 pmol/kg/min s.c., weeks 5-8), the “cardiac fibrosis by hydroxyproline analysis (LV collagen content)” value is recorded as “reversed the pro-fibrotic effects of high salt in the heart”, the “cardiac oxidative stress (DHE staining)” value is given as “reversed the oxidative stress effects of high salt in the heart” and the “myofibroblast differentiation in heart (α-SMA)” value is recorded as “reversed myofibroblast differentiation”. Also, the “expression of P-IκBα (marker for NFκB activation) in heart” value in series [2] (weeks 5-8, peptides 75 pmol/kg/min s.c., Cand 2 mg/kg/day, captopril 3 mg/kg/day) is recorded as “reversed”. For the same compound, the “cardiac fibrosis (picrosirius red)” value in series [2] (weeks 5-8 of high salt diet, peptides 75 pmol/kg/min s.c. mini-pump, Cand 2 mg/kg/day, captopril 3 mg/kg/day in drinking water) is given as “reversed cardiac fibrosis”. In series [3], the “kidney glomerular fibrosis (picrosirius red)” value is “reversed the glomerular fibrosis caused by high salt in the kidney” and the “kidney tubulointerstitial fibrosis (picrosirius red)” value is “reversed the tubulointerstitial fibrosis caused by high salt in the kidney”. Moreover, in series [4], the “macrophage infiltration in kidney (F4/80)” value was “reversed high salt-induced macrophage infiltration in the kidney”, the “renal fibrosis by hydroxyproline analysis” value was “reversed the pro-fibrotic effects of high salt in the kidney” and the “renal inflammation (phospho-IκBα expression)” value is listed as “reversed high salt-induced renal inflammation in the kidney”.
